Assay results from PubChem BioAssay (NCI).
Values joined by “and” are separate entries in the source; they are usually repeats but may differ in a detail not shown here. Identical values can stand only once.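 A five-concentration, 48-hour dose response in 96-well plates underlies each endpoint, interpolated linearly between surrounding concentrations. Abbreviation: GI50, concentration required for 50% inhibition of growth. At the TGI there is no net growth.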

Tests used:
Test in all cases: NCI-60 cell line screen, 48 h
DLD-1 colon = system: DLD-1 colon
HOP-18 NSCLC = system: HOP-18 NSCLC
LXFL 529 NSCLC = system: LXFL 529 NSCLC
NCI-H460 lung = system: NCI-H460 lung
OVCAR-8 ovarian = system: OVCAR-8 ovarian
SN12C renal = system: SN12C renal
OVCAR-5 ovarian = system: OVCAR-5 ovarian
DU-145 prostate = system: DU-145 prostate
HS 578T breast = system: HS 578T breast
T-47D breast = system: T-47D breast

Structure (SMILES) | TGI (DLD-1 colon) | TGI (HOP-18 NSCLC) | TGI (LXFL 529 NSCLC) | TGI (NCI-H460 lung) | TGI (OVCAR-8 ovarian) | TGI (SN12C renal) | TGI (OVCAR-5 ovarian) | TGI (DU-145 prostate) | TGI (HS 578T breast) | TGI (T-47D breast) | GI50 (DLD-1 colon) | GI50 (HOP-18 NSCLC) | GI50 (LXFL 529 NSCLC) | GI50 (NCI-H460 lung) | GI50 (OVCAR-8 ovarian) | GI50 (SN12C renal) | GI50 (DU-145 prostate) | GI50 (OVCAR-5 ovarian) | GI50 (T-47D breast)
Cn1nc(-c2ccccc2)c(C(=O)/C=C/c2ccc(Cl)cc2)c(N2CCCC2)c1=O | 10.8 µM | 19.4 µM | 13 µM | 12.9 µM | 29.7 µM | 54 µM |  |  |  |  |  |  |  |  |  |  |  |  | 
Cc1ccc2nc(NC(=O)C(=O)CC(=O)c3cccc4ccccc34)sc2c1 | > 100 µM | > 100 µM | > 100 µM | > 100 µM | 56.7 µM | > 100 µM | > 100 µM |  |  |  |  |  |  |  |  |  |  |  | 
N#C/C(=C\c1ccc2[nH]ccc2c1)C(=O)c1ccc(O)c(O)c1 | > 100 µM | > 100 µM | > 100 µM | > 100 µM | > 100 µM | > 100 µM | > 100 µM | > 100 µM | > 100 µM | > 100 µM |  |  |  |  |  |  |  |  | 
COC(=O)C(=O)C(C(=O)C(=O)Nc1cc(Cl)c(Cl)cc1Cl)c1nc2ccc([N+](=O)[O-])cc2[nH]c1=O (configuration not stated) |  | 95.2 µM | > 100 µM |  | > 100 µM | > 100 µM | > 100 µM |  |  |  |  |  |  |  |  |  |  |  | 
S=c1c2ccccc2c(=S)n2n1CC=CC2 | > 100 µM | > 100 µM | > 100 µM |  | > 100 µM | > 100 µM | > 100 µM |  |  |  |  |  |  |  |  |  |  |  | 
CC(=O)c1c2c(cc3c1CC1(C3)Cc3cc4c(c(C(=O)O)c3C1)CCC4)CCC2 (configuration not stated) | > 100 µM | > 100 µM | > 100 µM | > 100 µM | > 100 µM | > 100 µM | > 100 µM |  |  |  |  |  |  |  |  |  |  |  | 
COc1ccc(NC(=O)C2C(=O)N(c3ccc(OC)cc3)C(=O)/C2=N\NC(N)=O)cc1 (configuration not stated) |  | 70.7 µM | > 100 µM | > 100 µM | 34.6 µM | > 100 µM | > 100 µM |  |  |  |  |  |  |  |  |  |  |  | 
CCCCNC1=C(C(=O)OCC)/C(=N/NC(=O)c2ccccc2O)CO1 | > 100 µM | > 100 µM | > 100 µM | > 100 µM | > 100 µM | > 100 µM | > 100 µM |  |  |  |  |  |  |  |  |  |  |  | 
Cc1noc(/N=C2\C=C(Nc3onc(C)c3C)C(=O)c3ccccc32)c1C | > 100 µM | > 100 µM | > 100 µM | > 100 µM | > 100 µM | > 100 µM | > 100 µM |  |  |  |  |  |  |  |  |  |  |  | 
O=C1C=Cc2ncccc2C1=O | 34.2 µM | > 64.7 µM | 30.2 µM | 38.2 µM | 30.2 µM | 48.9 µM | > 58 µM |  |  |  |  |  |  |  |  |  |  |  | 
CC1=CC(=O)NP(=O)(C23CC4CC(CC(C4)C2)C3)N1 (configuration not stated) | > 100 µM | > 100 µM | > 100 µM | > 100 µM | > 100 µM | > 100 µM | > 100 µM |  |  |  |  |  |  |  |  |  |  |  | 
COc1cc(C(C#N)NNc2nc(C)cc(=O)[nH]2)cc(OC)c1OC (configuration not stated) | > 100 µM | > 100 µM | > 100 µM | > 100 µM | > 100 µM | > 100 µM | > 100 µM |  |  |  |  |  |  |  |  |  |  |  | 
CC(=O)OC(=O)O/C=C\CCl | > 100 µM | > 100 µM | > 100 µM | > 100 µM | > 100 µM | > 100 µM |  |  |  |  |  |  |  |  |  |  |  |  | 
COC(=O)C(C(=O)C(N)=O)c1csc(-n2nc(-c3ccccc3)cc2-c2ccccc2)n1 (configuration not stated) | > 31.6 µM | > 31.6 µM | > 31.6 µM | > 31.6 µM | > 31.6 µM |  | > 100 µM |  |  |  |  |  |  |  |  |  |  |  | 
O=C1CCC(=O)c2sccc2N1 | > 100 µM | > 100 µM | > 100 µM | > 100 µM | > 100 µM | > 100 µM | > 100 µM |  |  |  |  |  |  |  |  |  |  |  | 
CC(C)N1C(C)[C@@H](c2ccccc2)O[P@]1(=O)CC1=CCCCC1 (some centres not stated) | > 100 µM | > 100 µM | > 100 µM | > 100 µM | > 100 µM | > 100 µM | > 100 µM |  |  |  |  |  |  |  |  |  |  |  | 
COc1ccc2c(c1)c1c3n2CCNN=C3CCC1 | > 100 µM | > 100 µM | > 100 µM | > 100 µM | > 100 µM | > 100 µM | > 100 µM |  |  |  |  |  |  |  |  |  |  |  | 
N#CC(C(=O)CCCC(=O)Nc1ccc(Cl)cc1Cl)c1ccc(Cl)cc1 (configuration not stated) | > 100 µM | > 100 µM | > 100 µM | > 100 µM | > 100 µM | > 100 µM | > 100 µM |  |  |  |  |  |  |  |  |  |  |  | 
O=C(/C=C/C1C(=O)NC(=O)NC1=O)CC(=O)C(=O)Nc1cc(Cl)c(Cl)cc1Cl | > 100 µM | > 100 µM | > 100 µM | > 100 µM | > 100 µM | > 100 µM | > 100 µM |  |  |  |  |  |  |  |  |  |  |  | 
Cc1ccc(/C=N/NS(=O)(=O)c2ccccc2)c(C)c1 | > 100 µM | > 100 µM | > 100 µM | > 100 µM | > 100 µM | > 100 µM | > 100 µM |  |  |  |  |  |  |  |  |  |  |  | 
[CH3][Sn]1([CH3])[O]CC(COc2cc(Cl)c(Cl)cc2Cl)[O]1 (configuration not stated) | > 100 µM | > 100 µM | > 100 µM | > 100 µM | > 100 µM | > 100 µM |  |  |  |  | 54.5 µM | 75 µM | 41.2 µM | > 100 µM | > 100 µM | 89.1 µM |  |  | 
O=c1c2ccccc2nc(-c2ccccc2)n1NC(=S)Nc1cccc(Cl)c1 | > 100 µM | > 100 µM | > 100 µM | > 100 µM | > 100 µM | > 100 µM | > 100 µM |  |  |  |  |  |  |  |  |  |  |  | 
CC(=O)Nc1ccc(-c2nnc(SCC(=O)Nc3ccc(Cl)cc3)o2)cc1 | 27.9 µM | 30.2 µM | 22.5 µM | 36.8 µM | 74.1 µM | 27.5 µM | 31.6 µM |  |  |  |  |  |  |  |  |  |  |  | 
c1ccc(-c2ccnc3c2ccc2c(-c4ccccc4)ccnc23)cc1 | 15.3 µM | 11.4 µM | 11.5 µM | 7.28 µM | 4.75 µM | 6.54 µM | 11.8 µM |  |  |  |  |  |  |  |  |  |  |  | 
COc1ccc(C)cc1C1CCC(=O)O1 (configuration not stated) | > 100 µM | > 100 µM | > 100 µM | > 100 µM | > 100 µM | > 100 µM | > 100 µM |  |  |  |  |  |  |  |  |  |  |  | 
CC(/C=N/N=C(N)N)=N\N=C(N)N | 2500 µM | 2060 µM |  | 201 µM | > 76 µM and 378 µM | 941 µM | 347 µM | 2240 µM | 169 µM | 31 µM and 23.4 µM |  |  |  | 26.3 µM | 11.6 µM |  | 31 µM | 41 µM and 19.4 µM | 5.02 µM
O=S1(=O)c2ccccc2N=C(c2ccccc2Cl)CC1c1ccc(F)cc1 (configuration not stated) | 28.6 µM | 29.3 µM | 31.6 µM | 34.6 µM | 48.3 µM | 29.1 µM | 30.7 µM |  |  |  |  |  |  |  |  |  |  |  | 
